Laboratory results taken from patent publication US20210310040A1, “SUSCEPTIBILITY AND RESISTANCE OF MICROORGANISMS” (priority 2017, published 2021).
≈ marks a conversion by molar mass, not a printed value.

How the values were obtained:
ATCC 25922 (Pan-S) = test: Susceptibility by perturbation of VOCs, single indicator response after addition of antibiotic; format: cell-based, E. coli
From the text: (§1) However, it has been discovered that detection of changes in VOC output of microorganism—in addition to changes in the number of microorganisms—can be detected by the sensor 808 after application of antibiotics. The change in the sensor 808 response can also be correlated to susceptibility of the microorganism to antibiotics. For instance, it has been discovered that after application of antibiotics, certain sensors decrease or show less response at certain concentrations. This change in VOC output can be correlated to the resistance or susceptibility of the microorganisms in the sample to the antibiotic or other substance introduced. In other examples, a change in compound output that remain in solution (not limited to VOCs) may be correlated to a susceptibility of the microorganisms.
For instance, FIG. 48 illustrates an example of the response of the red spectrum of a single indicator (e.g. an indicator containing ZnTPP and Bromophenol Blue) on the sensor 808 in the presence of a sample. As shown, the antibiotic is added at 0.5 hours—in the example of the susceptible microorganism ATCC 25922 (Pan-S), the indicator red component drops off dramatically. The results can be noticed almost a half an hour to an hour after adding the antibiotic—far faster than to notice a general decline in emission of VOCs due to cell death or lack of growth of microorganisms. […]

E. coli AR 84 (ESBL) = test: as above; format: cell-based; details: at all concentrations of Ampicillin
From the text: as §1
In the resistant strain illustrated in FIG. 48, AR 84 (ESBL), the antibiotic is added at the same time, but the red component of the sensor response continues to increase over time. […] Accordingly, in this embodiment, the sensor 808 response of a single indicator may be monitored. Changes in the slope of the indicator response over time, or decreases in the indicator may be monitored to determine when there is potentially a susceptible organism. […]

K. pneumoniae IS-007 [1] = test: Colorimetric sensor array susceptibility test on solid growth media; format: cell-based, Klebsiella pneumoniae
From the text: (§2) To detect and identify a microorganism by species and/or strain, a sample including the microorganism is placed in a container including culture medium and a colorimetric array, and the temporal response of the sensors to the metabolic products of the microorganism is monitored. Susceptibility can be assessed by inoculating a growth medium including a substance (e.g., an antibiotic) with a microorganism and monitoring the response of the sensors while also monitoring the response of a control (e.g., no antibiotic).
(§3) FIG. 8 depicts an embodiment of a container 800 configured for use to assess a susceptibility or resistance of microorganisms. Container 800 includes base 802 and lid 804, with wells 806 positioned in base 802 opposite colorimetric sensor arrays 808 on lid 804. Microorganisms may be placed in contact with growth medium (e.g., a solid or liquid growth medium) in wells 806. A substance (e.g., a drug such as an antibiotic) may be added to the growth medium. In one example, rows and columns of wells 802 in container 800 may be used for different microorganisms, different substances (e.g., drugs including antibiotics that may potentially kill the microorganisms), and/or different concentrations of substances. After samples are loaded on wells 802, a lid 804 may be positioned over base 802, such that each colorimetric sensor array 808 is proximate a well 806 and in gaseous (or liquid) communication. In other embodiments, various other configurations could be utilized to bring the gas and volatile organic compounds emitted from the sample into gaseous proximity of the sensor array 808 at sufficient gaseous concentrations. The response of the sensor arrays 808 recorded by various detectors may then be assessed in order to determine a susceptibility or resistance of the various antibiotics or substances cultured with the sample. Susceptibility may be assessed via temporal response of the sensors in colorimetric sensor arrays 808 as described herein. Container 800 can be positioned in an apparatus (e.g., apparatus 700) for automated assessment of susceptibility and/or resistance.
(§4) FIGS. 9A-B show susceptibility of K. pneumoniae strains obtained in 6 hours in Muller-Hinton agar (x axis indicates time in hours). Susceptibility is indicated by a lack of metabolic products compared to controls (no antibiotic). […] FIGS. 10A-C show susceptibility of S. aureus strains obtained in 6 hours in Muller-Hinton agar.
(§5) In another susceptibility test, three strains of K. pneumoniae were inoculated onto the solid growth media with no antibiotic (control), piperacillin/tazobactam (PIP/TAZO) at concentrations of 16 ug/ml and 4 ug/ml, Cefepime at 8 ug/ml and Meropenem at 1 ug/ml. […] K. pneumoniae IS-020 was susceptible to all 3 antibiotics in agreement with known susceptibility information that this strain is susceptible to PIP/Tazo at <4 ug/ml, Cefepime <1 ug/ml and Meropenem at <0.25 ug/ml). K. pneumoniae IS-133 is known to be resistant at concentrations of PIP/Tazo below 128 ug/ml, Cefepime below 64 ug/ml and Meropenem below 16 ug/ml.

K. pneumoniae IS-020 [2] = test: as above; format: cell-based, Klebsiella pneumoniae
From the text: as §2, §3, §4, §5

K. pneumoniae IS-020 [3] = details: cited from earlier work
K. pneumoniae IS-007 [4] = details: cited from earlier work
K. pneumoniae IS-133 = details: cited from earlier work
S. aureus 29213 (MSSA) = test: Susceptibility by perturbation of VOCs, single indicator response with antibiotic; format: cell-based; details: Staphylococcus aureus, observed in about 2.5 hours, FIG. 52
From the text: as §1
FIG. 52 illustrates two graphs showing the MIC observed for two different antibiotics to S. aureus 29213 (MSSA). The graph on the left portion of FIG. 52 illustrates a MIC of 1 μg/ml to Cefoxitin and the graph on the right illustrations a MIC of 0.5 μg/ml of Vancomycin.

E. coli (AR85) = test: as above; format: cell-based; details: Escherichia coli; observed after 2.5 hours, FIG. 50; read-out: minimum inhibitory concentration (MIC)
From the text: as §1
FIG. 50 illustrates a graph showing the sensor response of a single sensor 808, dye or indicator to a sample of E. coli incubated in the presence of different concentrations of Ertapenem—a Carbapenem family of antibiotic. As illustrated, the single indicator can not only determine whether this strain of E. coli (AR85) is resistant to Ertapenem, but also the minimum inhibitory concentration (“MIC”). As illustrated, the minimum inhibitory concentration of 2 μg/ml is observed only after 2.5 hours. […]

S. aureus IS-120 [5] = details: cited from earlier work
S. aureus IS-124 [6] = test: Colorimetric sensor array susceptibility test on solid growth media; format: cell-based, Staphylococcus aureus
From the text: as §2, §3, §4
(§6) In another susceptibility test, three strains of S. aureus were inoculated onto the solid growth media. […] S. aureus IS-124 was susceptible to both antibiotics in agreement with known susceptibility information that this strain is susceptible to Oxacillin and Vancomycin.

S. aureus IS-120 [7] = test: as above; format: cell-based, Staphylococcus aureus
From the text: as §2, §3, §4, §6

S. aureus IS-123 [8] = test: as above; format: cell-based, Staphylococcus aureus
From the text: as §2, §3, §4, §6

S. aureus IS-124 [9] = details: cited from earlier work
S. aureus IS-123 [10] = details: cited from earlier work
[11] = PIP/TAZO at 16 ug/ml and 4 ug/ml

CC1(C)S[C@@H]2[C@H](NC(=O)[C@H](N)c3ccccc3)C(=O)N2[C@H]1C(=O)O [Ampicillin]
sensor response of single indicator after addition of antibiotic (FIG. 49) (ATCC 25922 (Pan-S); Ampicillin at 0.5 mg/ml and 1.0 mg/ml): same response | MIC (ATCC 25922 (Pan-S); Escherichia coli, ATCC25922, single sensor or indicator, FIG. 53): 1 to 8 mg/L (≈ 2.86 to 22.9 µM) | sensor response of single indicator after addition of antibiotic (FIG. 49) (E. coli AR 84 (ESBL)): decline in sensor response

CO/N=C(\C(=O)N[C@@H]1C(=O)N2C(C(=O)[O-])=C(C[N+]3(C)CCCC3)CS[C@H]12)c1csc(N)n1 [Cefepime]
susceptibility or resistance by sensor response compared to control (K. pneumoniae IS-007 [1]; Cefepime at 8 ug/ml): resistance | susceptibility or resistance by sensor response compared to control (K. pneumoniae IS-020 [2]; Cefepime at 8 ug/ml): susceptible | known susceptibility information: concentration at which strain is susceptible (K. pneumoniae IS-020 [3]): < 1 µg/mL | known susceptibility information: concentration at which strain is susceptible (K. pneumoniae IS-007 [4]): < 0.25 µg/mL | known susceptibility information: concentration below which strain is resistant (K. pneumoniae IS-007 [4]): below 64 ug/ml | known to be resistant at concentrations below (K. pneumoniae IS-133): below 64 ug/ml

CO[C@@]1(NC(=O)Cc2cccs2)C(=O)N2C(C(=O)O)=C(COC(N)=O)CS[C@@H]21 [Cefoxitin]
MIC (S. aureus 29213 (MSSA)): 1 mg/L (≈ 2.34 µM)

C[C@@H](O)[C@H]1C(=O)N2C(C(=O)O)=C(S[C@@H]3CN[C@H](C(=O)Nc4cccc(C(=O)O)c4)C3)[C@H](C)[C@H]12 [Ertapenem]
MIC (E. coli (AR85)): 2 mg/L (≈ 4.21 µM)

C[C@@H](O)[C@H]1C(=O)N2C(C(=O)O)=C(S[C@@H]3CN[C@H](C(=O)N(C)C)C3)[C@H](C)[C@H]12 [Meropenem]
susceptibility or resistance by sensor response compared to control (K. pneumoniae IS-007 [1]; Meropenem at 1 ug/ml): susceptibility | susceptibility or resistance by sensor response compared to control (K. pneumoniae IS-020 [2]; Meropenem at 1 ug/ml): susceptible | known susceptibility information: concentration at which strain is susceptible (K. pneumoniae IS-020 [3]): < 0.25 µg/mL | known to be resistant at concentrations below (K. pneumoniae IS-133): below 16 ug/ml

Cc1onc(-c2ccccc2)c1C(=O)N[C@@H]1C(=O)N2[C@@H]1SC(C)(C)[C@@H]2C(=O)O [Oxacillin]
known susceptibility information: concentration below which strain is resistant (S. aureus IS-120 [5]): below 4 ug/ml | susceptibility or resistance by sensor response (S. aureus IS-124 [6]): susceptible | susceptibility or resistance by sensor response (S. aureus IS-120 [7]; Oxacillin at 2 ug/ml): resistance | susceptibility or resistance by sensor response (S. aureus IS-123 [8]; Oxacillin at 2 ug/ml): resistance | known susceptibility information: susceptible or resistant (S. aureus IS-124 [9]): susceptible | known susceptibility information: concentration below which strain is resistant (S. aureus IS-123 [10]): below 4 ug/ml

CN[C@H](CC(C)C)C(=O)N[C@H]1C(=O)N[C@@H](CC(N)=O)C(=O)N[C@H]2C(=O)N[C@H]3C(=O)N[C@H](C(=O)N[C@H](C(=O)O)c4cc(O)cc(O)c4-c4cc3ccc4O)[C@H](O)c3ccc(c(Cl)c3)Oc3cc2cc(c3O[C@@H]2O[C@H](CO)[C@@H](O)[C@H](O)[C@H]2O[C@H]2C[C@](C)(N)[C@H](O)[C@H](C)O2)Oc2ccc(cc2Cl)[C@H]1O [Vancomycin]
known susceptibility information: susceptible or resistant (S. aureus IS-120 [5]): susceptible | susceptibility or resistance by sensor response (S. aureus IS-124 [6]): susceptible | susceptibility or resistance by sensor response (S. aureus IS-120 [7]; Vancomycin at 1-2 ug/ml): susceptibility | susceptibility or resistance by sensor response (S. aureus IS-123 [8]; Vancomycin at 1-2 ug/ml): susceptibility | known susceptibility information: susceptible or resistant (S. aureus IS-124 [9]): susceptible | known susceptibility information: susceptible or resistant (S. aureus IS-123 [10]): susceptible

piperacillin/tazobactam [PIP/Tazo]
susceptibility or resistance by sensor response compared to control (K. pneumoniae IS-007 [1]; [11]): susceptibility | susceptibility or resistance by sensor response compared to control (K. pneumoniae IS-020 [2]; [11]): susceptible | known susceptibility information: concentration at which strain is susceptible (K. pneumoniae IS-020 [3]): < 4 µg/mL | known susceptibility information: concentration at which strain is susceptible (K. pneumoniae IS-007 [4]): 4 µg/mL | known to be resistant at concentrations below (K. pneumoniae IS-133): below 128 ug/ml
